Results from US9340577B2, “HLA binding motifs and peptides and their uses” (priority 1992, dated 2016).
No end group written: not given here.

Assays:
Test in all cases: biochemical
[1] = target: DRB1*0301 (Homo sapiens, UniProt P01903+P01911, A100K/A102G/A103R/A169T/F55Y/I96L/K41T/L162R/M171V/P40S/Q125H/Q178H/Q39Y/R42S/S66N/T106N/T262R/W38E/Y61H); type: binding
[2] = target: DRB1*1201 (Homo sapiens, UniProt P01903+P01911, A100R/A169T/D57E/D86V/F55L/H45Y/K41T/L162R/M171V/P40S/Q125H/Q178H/Q39Y/Q99D/R42G/S66L/T262R/V114A/V67L/W38E/Y59H/Y61H/Y89S); type: binding
[3] = target: DR4w4 (DRB1*0401) (Homo sapiens, UniProt P01903+P01911, A100K/A169T/F76Y/I96L/K127E/L162R/M171V/N62H/P40V/Q125Y/R42H/S133A/S149N/S66Y/V115G/V209L/W38E); type: binding
[4] = target: DRB5*0101 (Homo sapiens, UniProt P01903+Q30154); settings: Binding affinity DRB5 *0101
[5] = target: DR7 (DRB1*0701) (Homo sapiens, UniProt P01903+P01911, A100R/A102G/A103Q/D57E/D86V/E43K/F76Y/K127E/L162R/M171V/P40G/Q125H/Q99D/R33Q/R42Y/R54Q/S133A/S66F/T210M/V115G/Y107V/Y59L/Y89S); type: binding
[6] = target: DRB1*1302 (Homo sapiens, UniProt P01903+P01911, A100E/A169T/K41T/L162R/M171V/P40S/Q125H/Q178H/Q39Y/Q99D/R42S/S66N/T262R/V115G/W38E/Y61H); type: binding
Sequence of DRB1*1302 (P01903 26-254 limits assumed, other chains not shown): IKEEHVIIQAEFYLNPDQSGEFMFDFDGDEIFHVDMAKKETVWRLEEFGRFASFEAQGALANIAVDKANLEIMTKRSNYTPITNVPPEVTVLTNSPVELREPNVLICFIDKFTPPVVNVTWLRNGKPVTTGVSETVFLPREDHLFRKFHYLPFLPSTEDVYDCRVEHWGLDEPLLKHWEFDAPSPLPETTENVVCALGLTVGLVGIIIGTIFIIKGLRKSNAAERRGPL

[7] = target: DRB1*1101 (Homo sapiens, UniProt P01903+P01911, A100R/A169T/A87E/I96F/K41T/L162R/M171V/P40S/Q125H/Q178H/Q39Y/Q99D/R42S/S66Y/T262R/V115G/W38E); settings: Binding affinity DRB1 *1101
Sequence of DRB1*1101 (P01903 26-254 limits assumed, other chains not shown): as above

[8] = target: DRB1*0802 (Homo sapiens, UniProt P01903+P01911, A100R/A103L/A169T/F76Y/H45Y/I96F/K41T/L162R/M171V/P40S/Q125H/Q178H/Q39Y/Q99D/R218S/R42G/S66Y/V115G/W38E); type: binding
[9] = target: DRB1*0405 (Homo sapiens, UniProt P01903+P01911, A100R/A169T/D86S/F76Y/I96L/K127E/L162R/M171V/N62H/P40V/Q125Y/R42H/S133A/S149N/S66Y/V115G/V209L/W38E); type: binding
[10] = target: DRB1*1501 (Homo sapiens, UniProt P01903+P01911); type: binding
[11] = target: DRB4*0101 (Homo sapiens, UniProt P01903+P13762, G164S); type: binding
[12] = target: DRB1*0901 (Homo sapiens, UniProt P01903+P01911, A100R/A103E/D57H/D86V/F55Y/F60I/F76Y/I96F/K127E/L162R/M171V/P40D/Q125H/Q99R/R33Q/R42F/S133A/S66N/T210M/V115G/W38K/Y107V/Y59G/Y89S); type: binding
[13] = target: DR1 (DRB1*0101) (Homo sapiens, UniProt P01903+P01911, A100R/D57E/F55L/F60I/F76Y/I96L/L162R/M171V/P40L/Q125E/R42F/V115G/Y59C); type: binding

Sequence of DRB1*0301 (P01903 26-254 limits assumed, other chains not shown): as above

Row | Compound | IC50 [1] | IC50 [2] | IC50 [3] | IC50 [4] | IC50 [5] | IC50 [6] | IC50 [7] | IC50 [8] | IC50 [9] | IC50 [10] | IC50 [11] | IC50 [12] | IC50 [13]
1 | CC(C)C[C@H](NC(=O)[C@H](CO)NC(=O)[C@H](CC(C)C)NC(=O)[C@H](CO)NC(=O)[C@H](C)NC(=O)[C@H](C)NC(=O)[C@H](CCCNC(=N)N)NC(=O)[C@H](C)NC(=O)[C@H](CC(C)C)NC(=O)[C@H](CC(C)C)NC(=O)[C@H](CC(C)C)NC(=O)[C@@H]1CCCN1C(=O)[C@H](C)NC(=O)[C@H](C)N)C(=O)NCC(=O)O [Peptide 68.0019] | > 20000 nM | 564 nM | – | – | – | – | – | – | – | – | – | – | –
2 | CC(C)C[C@H](NC(=O)[C@H](CO)NC(=O)[C@H](CC(C)C)NC(=O)[C@H](CO)NC(=O)[C@H](C)NC(=O)[C@H](C)NC(=O)[C@H](CCCNC(=N)N)NC(=O)[C@H](C)NC(=O)[C@H](CC(C)C)NC(=O)[C@H](CC(C)C)NC(=O)[C@H](CC(C)C)NC(=O)[C@@H]1CCCN1C(=O)[C@H](C)N)C(=O)NCC(=O)N[C@@H](Cc1ccccc1)C(=O)O [Peptide 68.0020] | > 20000 nM | 225 nM | – | – | – | – | – | – | – | – | – | – | –
3 | CC[C@H](C)[C@H](NC(=O)[C@H](CO)NC(=O)[C@@H](NC(=O)CN)C(C)C)C(=O)N[C@@H](Cc1c[nH]c2ccccc12)C(=O)N[C@@H](CC(N)=O)C(=O)N1CCC[C@H]1C(=O)N[C@H](C(=O)N[C@@H](CC(C)C)C(=O)N[C@@H](CC(C)C)C(=O)N[C@@H](Cc1c[nH]c2ccccc12)C(=O)N[C@@H](CCC(N)=O)C(=O)N1CCC[C@H]1C(=O)N[C@H](C(=O)N1CCC[C@H]1C(=O)O)[C@@H](C)CC)[C@@H](C)CC [Peptide 68.0034] | > 20000 nM | 3900 nM | – | – | – | – | – | – | – | – | – | – | –
4 | CC[C@H](C)[C@H](NC(=O)[C@H](CC(C)C)NC(=O)[C@H](CCCCN)NC(=O)[C@H](CCCCN)NC(=O)[C@@H](N)Cc1ccc(O)cc1)C(=O)N[C@@H](CCSC)C(=O)N[C@@H](Cc1ccc(O)cc1)C(=O)N[C@@H](CO)C(=O)N[C@@H](C)C(=O)N[C@@H](Cc1c[nH]cn1)C(=O)N[C@@H](CC(=O)O)C(=O)N[C@H](C(=O)N[C@H](C(=O)N[C@H](C(=O)N[C@@H](CO)C(=O)O)C(C)C)[C@@H](C)O)[C@@H](C)O [Peptide 68.0049] | > 20000 nM | 928 nM | – | – | – | – | – | – | – | – | – | – | –
5 | CC[C@H](C)[C@H](NC(=O)[C@H](Cc1c[nH]c2ccccc12)NC(=O)[C@@H](NC(=O)[C@@H](NC(=O)[C@H](CO)NC(=O)[C@H](CC(C)C)NC(=O)[C@@H](N)[C@@H](C)O)C(C)C)[C@@H](C)O)C(=O)NCC(=O)N[C@@H](C)C(=O)N[C@@H](C)C(=O)N1CCC[C@H]1C(=O)N[C@@H](CC(C)C)C(=O)N[C@H](C(=O)N[C@@H](CC(C)C)C(=O)N[C@@H](CO)C(=O)O)[C@@H](C)CC [Peptide 68.0058] | > 20000 nM | 55 nM | – | – | – | – | – | – | – | – | – | – | –
6 | CC[C@H](C)[C@H](NC(=O)[C@H](CS)NC(=O)[C@H](Cc1c[nH]cn1)NC(=O)[C@H](C)N)C(=O)N[C@@H](CCCNC(=N)N)C(=O)N[C@@H](CC(N)=O)C(=O)N[C@@H](CCCCN)C(=O)N[C@@H](CO)C(=O)N[C@H](C(=O)N[C@H](C(=O)N[C@@H](CC(C)C)C(=O)N[C@@H](CC(C)C)C(=O)NCC(=O)N[C@@H](CCCNC(=N)N)C(=O)N[C@@H](Cc1c[nH]cn1)C(=O)O)[C@@H](C)CC)C(C)C [Peptide 68.0066] | > 20000 nM | 160 nM | – | – | – | – | – | – | – | – | – | – | –
7 | CC(C)C[C@H](NC(=O)[C@@H]1CCCN1C(=O)[C@H](Cc1c[nH]cn1)NC(=O)[C@@H]1CCCN1C(=O)[C@H](Cc1ccccc1)NC(=O)[C@H](CO)NC(=O)[C@H](Cc1c[nH]cn1)NC(=O)[C@H](CO)NC(=O)[C@@H](NC(=O)[C@H](CCC(N)=O)NC(=O)[C@H](Cc1ccccc1)NC(=O)[C@@H](NC(=O)[C@H](CCC(N)=O)NC(=O)CN)C(C)C)C(C)C)C(=O)N[C@@H](Cc1ccc(O)cc1)C(=O)O [Peptide 68.0069] | > 20000 nM | 557 nM | – | – | – | – | – | – | – | – | – | – | –
8 | CC[C@H](C)[C@H](NC(=O)[C@H](Cc1c[nH]c2ccccc12)NC(=O)[C@H](CCCCN)NC(=O)[C@H](CCCNC(=N)N)NC(=O)[C@H](Cc1ccc(O)cc1)NC(=O)[C@H](Cc1c[nH]cn1)NC(=O)[C@@H](NC(=O)[C@@H](NC(=O)[C@H](CCCCN)NC(=O)[C@@H](NC(=O)[C@H](Cc1ccc(O)cc1)NC(=O)[C@H](CC(C)C)NC(=O)[C@H](CO)NC(=O)[C@@H]1CCCN1C(=O)[C@@H](N)CCCNC(=N)N)[C@@H](C)O)C(C)C)C(C)C)C(=O)O [Peptide 68.0082] | > 20000 nM | 4160 nM | – | – | – | – | – | – | – | – | – | – | –
9 | CC[C@H](C)[C@H](NC(=O)CNC(=O)[C@H](CCC(=O)O)NC(=O)[C@H](Cc1c[nH]cn1)NC(=O)[C@@H](NC(=O)[C@H](Cc1ccc(O)cc1)NC(=O)[C@H](Cc1ccc(O)cc1)NC(=O)[C@H](CC(C)C)NC(=O)CN)C(C)C)C(=O)N[C@@H](CCCNC(=N)N)C(=O)N[C@H](C(=O)N[C@@H](Cc1ccc(O)cc1)C(=O)N[C@@H](Cc1ccccc1)C(=O)N[C@H](C(=O)N[C@@H](CCC(N)=O)C(=O)O)C(C)C)[C@@H](C)O [Peptide 90.0171] | 689 nM | – | 668 nM | > 20000 nM | 5580 nM | 532 nM | 5360 nM | 7380 nM | 4660 nM | 1620 nM | 1.9 nM | 1000 nM | 26 nM
10 | AKLMSNLLSIPETCM [Peptide 89.0066] | 12800 nM | – | 99 nM | > 20000 nM | 388 nM | 12 nM | 14600 nM | > 20000 nM | 34 nM | 3430 nM | 421 nM | 9140 nM | 323 nM
11 | ETCMLIQPPKLRSSV [Peptide 89.0029] | > 20000 nM | – | 901 nM | – | 354 nM | 3050 nM | – | 5080 nM | 1560 nM | 1700 nM | 81 nM | 19500 nM | 60 nM
12 | IIHLKGDKNSLKCLR [Peptide 90.0218] | 42 nM | – | 347 nM | 9920 nM | – | 1330 nM | – | – | 12700 nM | 137 nM | 1440 nM | – | –
13 | KHIRLLECVLMYKARE [Peptide 1601.44] | 72 nM | – | 67 nM | 1630 nM | 6700 nM | 418 nM | 613 nM | 1770 nM | 236 nM | 74 nM | 39 nM | 7480 nM | 120 nM
14 | KIGMIDDVTPISWTY [Peptide 90.0087] | 70 nM | – | 20 nM | > 20000 nM | > 20000 nM | 9.8 nM | > 20000 nM | 8370 nM | > 20000 nM | 4460 nM | 3120 nM | > 20000 nM | 3220 nM
15 | LYGVSFMELIRPFQS [Peptide 89.0041] | > 20000 nM | – | 5210 nM | 6040 nM | – | > 20000 nM | 39 nM | – | 1800 nM | 1550 nM | 2.2 nM | 64 nM | –
16 | QHSFNDDIFDLSEMI [Peptide 90.0152] | 534 nM | – | 37 nM | – | – | 17 nM | 4380 nM | 7610 nM | 384 nM | 688 nM | 2.1 nM | – | 42 nM
